The results in this text go back to patent US12612413B2, “Heteroaryl compounds as inhibitors of programmed necrosis pathway, composition and method using the same” (ACCRO BIOSCIENCE INC., priority 2020, dated 2026).

Where a name gives a salt, the structure may show the parent alone.

Holding throughout (type): cell-based
Test [1] has as its system HT-29 cells. Put plainly: HT-29 cell viability (necroptosis) assay. The note with it: Homo sapiens, TNF-α (40 ng/mL), Smac mimetic (100 nM), z-VAD (20 μM), 40 h; for EC50: from survival rate curve; for viability at 20 µM: compound at 20 μM, read-out: HT-29(20 μM) Survival. As to the method: Human colon cancer HT-29 cells were used in a necroptosis assay. For this assay, HT-29 cells were added to 96-well plates. The compounds at different concentrations (0.3, 1.0, 3.0, 10.0, 20.0 μM) were then preprocessed for two hours. TNF-α (40 ng/mL), Smac mimetic (100 nM) and z-VAD (20 μM) were added, and the mixture was incubated for 40 h. Quantitative analysis of cell viability was conducted. DMSO pretreatment group was used as a negative control. Concentration for 50% of maximal effect was calculated according to the curve of the survival rate measured at different concentrations. FIG. 1 depicts the EC50 curves of compound A16.

Test [2] has as its system MEF cells. Put plainly: MEF cell viability (necroptosis) assay. The note with it: Mus musculus, TNF-α (40 ng/mL), Smac mimetic (100 nM), z-VAD (20 μM), 12 h. As to the method:
MEF cells were added to 96-well plate. The compounds at different concentrations (0.3, 1.0, 3.0, 10.0, 20.0 μM) were then preprocessed for two hours. TNF-α (40 ng/mL), Smac mimetic (100 nM) and z-VAD (20 μM) were added, and the mixture was incubated for 12 h. Quantitative analysis of cell survival was conducted. DMSO pretreatment group was used as a negative control. Concentration for 50% of maximal effect was calculated according to the curve of the survival rate measured at different concentrations. FIG. 2 depicts the EC50 curves of compound A9.

The test system of test [3] is L929 cells. Put plainly: L929 cell viability (necroptosis) assay. The note with it: Mus musculus, TNF-α (40 ng/mL), z-VAD (20 μM), 16 h. As to the method: L929 cells were added to 96-well plate. The compounds at different concentrations (0.3, 1.0, 3.0, 10.0, 20.0 μM) were then preprocessed for two hours. TNF-α (40 ng/mL), and z-VAD (20 μM) were added, and the mixture was incubated for 16 h. Quantitative analysis of cell survival was conducted. DMSO pretreatment was used as a negative control. Concentration for 50% of maximal effect was calculated according to the curve of the survival rate measured at different concentrations. FIG. 3 depicts the EC50 curves of compound A3.

`CC1(C)C(=O)c2cc3nccc(Nc4ccc5scnc5c4)c3cc2S1(=O)=O` [Compound B4, 8-(benzo[d]thiazol-5-ylamino)-2,2-dimethylthieno[2,3-g]quinolin-3(2H)-one 1,1-dioxide]: the EC50 in test [1] came out at 2080 nM; in test [2], 9330 nM.
For `CC(C)OC1=CS(=O)(=O)c2cc3c(Nc4ccc5scnc5c4)ccnc3cc21` [Compound A14], the EC50 in test [1] was 280 nM; in test [2], 290 nM.
As to `O=S1(=O)C=C(c2ccccc2)c2cc3nccc(Nc4ccc5scnc5c4)c3cc21` [Compound A22], the results for the EC50 in test [1] and in test [2] were 450 nM and 830 nM, respectively.
For `O=S1(=O)CC2(OCCO2)c2cc3nccc(Nc4ccc5scnc5c4)c3cc21` [Compound B2, 8-(benzo[d]thiazol-5-ylamino)-2H-spiro[thieno[2,3-g]quinoline-3,2′-[1,3]dioxolane]1,1-dioxide], the results for the EC50 in test [1], in test [2] and in test [3] were 300 nM, 435 nM and 430 nM, respectively.
`CC1=CS(=O)(=O)c2cc3c(Nc4ccc5scnc5c4)ccnc3cc21` [Compound A7]: the 50% effective concentration (EC50) is 380 nM in test [1] and 240 nM in test [3].
Regarding `Cn1ccc(C2=CS(=O)(=O)c3cc4c(Nc5ccc6scnc6c5)ccnc4cc32)n1` [Compound A33], the figures for the 50% effective concentration (EC50) in test [1] and in test [2] were 350 nM and 380 nM, respectively.
With `CC1=C(OCC2CC2)c2cc3nccc(Nc4ccc5scnc5c4)c3cc2S1(=O)=O` [Compound A21], the EC50 in test [1] worked out at 310 nM; in test [2] it was 440 nM; in test [3], 8730 nM.
As to `COCCOC1=CS(=O)(=O)c2cc3c(Nc4ccc5scnc5c4)ccnc3cc21` [Compound A17], the EC50 is 260 nM in test [1] and 300 nM in test [2].
Consider `CC1=Cc2cc3nccc(Nc4ccc5scnc5c4)c3cc2S1(=O)=O` [Compound A3], for which the EC50 stood at 620 nM in test [1] and 1940 nM in test [3].
As to `O=S1(=O)CCc2cc3nccc(Nc4ccc5scnc5c4)c3cc21` [Compound B1, 8-(benzo[d]thiazol-5-ylamino)-2,3-dihydrothieno[2,3-g]quinoline 1,1-dioxide], the concentration for a half-maximal effect (EC50) in test [1] came to 1740 nM; in test [3], 64000 nM.
Take `CCOC1=C(C)S(=O)(=O)c2cc3c(Nc4ccc5scnc5c4)ccnc3cc21` [Compound A20]: the EC50 was found to be 280 nM in test [1], 310 nM in test [2] and 420 nM in test [3].
Regarding `CC1=Cc2cc3nccc(Nc4ccc5c(c4)CN(C)CC5)c3cc2S1(=O)=O` [Compound A42], the viability at 20 µM in test [1] was 23.1%.
Take `Cc1ccc(O)cc1Nc1ccnc2cc3c(cc12)S(=O)(=O)C=C3` [Compound A107]: the midpoint of the response in test [1], the EC50, lay at 1060 nM.
Consider `CC1(O)c2cc3nccc(Nc4ccc5scnc5c4)c3cc2S(=O)(=O)C1(C)C` (centres unmarked) [Compound B10, 8-(benzo[d]thiazol-5-ylamino)-3-hydroxy-2,2,3-trimethyl-2,3-dihydrothieno[2,3-g]quinoline 1,1-dioxide], for which the viability at 20 µM in test [1] worked out at 36.4%.
For `O=S1(=O)C=C(c2cccnc2)c2cc3nccc(Nc4ccc5scnc5c4)c3cc21` [Compound A27], in test [1], a half-maximal effect (EC50) was put at 490 nM.
Take `O=S1(=O)C=C(Br)c2cc3nccc(Nc4ccc5scnc5c4)c3cc21` [Compound A1, 8-(benzo[d]thiazol-5-ylamino)-3-bromothieno[2,3-g]quinoline 1,1-dioxide]: the viability at 20 µM in test [1] worked out at 4.5%.
Still for that read-out and setting: as for `CC1=Cc2cc3nccc(Nc4ccc(O)c(Br)c4)c3cc2S1(=O)=O` [Compound A56], the figure is 23.2%.
In test [1], `CC1(C)C(O)c2cc3nccc(Nc4ccc5scnc5c4)c3cc2S1(=O)=O` (centres unmarked) [Compound B9] came in with an EC50 of 620 nM.
For the molecule `CC1=CS(=O)(=O)c2cc3c(Nc4cc(O)ccc4C)ccnc3cc21` [Compound A76], the viability at 20 µM in test [1] came to 33.8%.
As for `O=C1CS(=O)(=O)c2cc3c(Nc4ccc5scnc5c4)ccnc3cc21` [Compound B3, 8-(benzo[d]thiazol-5-ylamino)thieno[2,3-g]quinolin-3(2H)-one 1,1-dioxide hydrochloride], in test [1], the midpoint of the response, the EC50, lay at 3240 nM.
Still for that read-out and setting: as for `CC1=Cc2cc3nccc(Nc4n[nH]c5ccc(F)cc45)c3cc2S1(=O)=O` [Compound A36], the figure is 5790 nM.
Take `CCC1(C)C(C)c2cc3nccc(Nc4ccc5scnc5c4)c3cc2S1(=O)=O` (centres unmarked) [Compound B5]: in test [1], the viability at 20 µM is 39.2%.
Turning to `CC1=Cc2cc3nccc(Nc4ccc5[nH]nnc5c4)c3cc2S1(=O)=O` [Compound A39], in test [1], the viability at 20 µM stood at 63.5%.
Turning to `O=S1(=O)C=C(C2CC2)c2cc3nccc(Nc4cc(O)c(F)cc4F)c3cc21` [Compound A100], the concentration for a half-maximal effect (EC50) in test [1] worked out at 950 nM.
Still for that read-out and setting: as for `CC(C)C1=Cc2cc3nccc(Nc4ccc5scnc5c4)c3cc2S1(=O)=O` [Compound A5], the figure is 760 nM; as for `O=S1(=O)C=C(c2ccc(O)cc2)c2cc3nccc(Nc4ccc5scnc5c4)c3cc21` [Compound A24], 500 nM.
Consider `CC(=O)Nc1ccc(C)c(Nc2ccnc3cc4c(cc23)S(=O)(=O)C=C4C)c1` [Compound A77], for which the viability at 20 µM in test [1] stood at 12.9%.
In test [1], `CC1(C)C(=O)c2cc3nccc(Nc4cc(O)ccc4F)c3cc2S1(=O)=O` [Compound B14] returned an EC50 of 320 nM.
In the case of `CC1=CS(=O)(=O)c2cc3c(Nc4ccc5cn[nH]c5c4)ccnc3cc21` [Compound A72], the viability at 20 µM in test [1] amounted to 40.7%.
Consider `C=CCC1(C)C(=O)c2cc3nccc(Nc4ccc5scnc5c4)c3cc2S1(=O)=O` (centres unmarked) [Compound B6], for which the viability at 20 µM in test [1] worked out at 42.5%.
In test [1], `O=S1(=O)C=C(O[C@H]2CCOC2)c2cc3nccc(Nc4ccc5scnc5c4)c3cc21` [Compound A117] displayed an EC50 of 390 nM.
For `CC1=Cc2cc3nccc(Nc4cnc5scnc5c4)c3cc2S1(=O)=O` [Compound A45], the viability at 20 µM in test [1] was found to be 27.6%.
Same read-out and setting: as for `CC1(C)C(=O)c2cc3nccc(Nc4ccc(O)c(C#N)c4)c3cc2S1(=O)=O` [Compound B17], the figure is 22.8%; as for `CC1=Cc2cc3nccc(Nc4ccc5cn[nH]c5c4)c3cc2S1(=O)=O` [Compound A35], 33%.
In the case of `C=C1c2cc3nccc(Nc4ccc5scnc5c4)c3cc2S(=O)(=O)C1(C)C` [Compound B8, 8-(benzo[d]thiazol-5-ylamino)-2,2-dimethyl-3-methylene-2,3-dihydrothieno[2,3-g]quinoline 1,1-dioxide], the EC50 in test [1] stood at 930 nM; in test [2], 1770 nM.
As for `CC1=Cc2cc3nccc(Nc4cc(O)cc(Br)c4)c3cc2S1(=O)=O` [Compound A60], the viability at 20 µM in test [1] is 13.9%.
In test [1], `O=S1(=O)C=C(OC2COC2)c2cc3nccc(Nc4ccc5scnc5c4)c3cc21` [Compound A118] displayed an EC50 of 290 nM.
For the molecule `O=S1(=O)C=C(C2CC2)c2cc3nccc(Nc4ccc5scnc5c4)c3cc21` [Compound A9], the EC50 is 85 nM in test [1], 240 nM in test [2] and 210 nM in test [3].
In turn, `O=S1(=O)C=C(c2cn[nH]c2)c2cc3nccc(Nc4ccc5scnc5c4)c3cc21` [Compound A30] gave an EC50 in test [1] of 97 nM.
In the case of `O=S1(=O)C=C(OC2CCOC2)c2cc3nccc(Nc4ccc5scnc5c4)c3cc21` (centres unmarked) [Compound A115], the EC50 in test [1] was found to be 280 nM.
The same measure, in the same setting: the figure for `O=S1(=O)C=C(c2ccc(F)cc2)c2cc3nccc(Nc4ccc5scnc5c4)c3cc21` [Compound A26] is 570 nM.
With `CC1=CS(=O)(=O)c2cc3c(Nc4cc(N)ccc4C)ccnc3cc21` [Compound A78], in test [1], the viability at 20 µM is 10.5%.
With `CCOC1=CS(=O)(=O)c2cc3c(Nc4ccc5scnc5c4)ccnc3cc21` [Compound A13], the EC50 is 430 nM in test [1], 200 nM in test [2] and 780 nM in test [3].
Turning to `CC1=Cc2cc3nccc(Nc4cc(O)cc(F)c4)c3cc2S1(=O)=O` [Compound A59], in test [1], the viability at 20 µM worked out at 27.9%.
On the same count and under the same terms, as for `CC(C)C1=CS(=O)(=O)c2cc3c(Nc4ccc5scnc5c4)ccnc3cc21` [Compound A11], the figure is 34.5%.
On the same count and under the same terms, as for `CC1=Cc2cc3nccc(Nc4ccc5nc[nH]c5c4)c3cc2S1(=O)=O` [Compound A40], the figure is 5.8%.

Usually EC50 stands for the concentration at which the effect is half-maximal.
